Consider 15 compounds from PubChem BioAssay AID292 (DTP/NCI, 2004).

Values joined by “and” are separate entries in the source; they are usually repeats but may differ in a detail not shown here. Identical values can stand only once. Toxic doses and inconclusive results are not listed.

The experiment concerns B6C3F1 mice, ip Sarcoma M5076, median survival T/C. The experiment in a line: NCI In Vivo Anticancer Drug Screen. Data for tumor model Sarcoma M5076 (intraperitoneal) in B6C3F1 mice. The following applies: endpoint: median survival time, higher = longer survival. In short, it runs like this: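 Transplantable tumour in mice; compound-treated vs vehicle-treated groups. Read-out: survival. Value = treated/control ratio.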

On to `O=S1(=O)C(c2ccc(F)cc2)=C(O)c2cc3ccccc3nc21`, for which the T/C reads like this: (dose: 17.19 mg/kg/injection, schedule: Q04DX004 (ip), vehicle: sodium bicarbonate) 97 % of control; (dose: 34.38 mg/kg/injection, schedule: Q04DX004 (ip), vehicle: sodium bicarbonate) 93 % of control; (dose: 68.75 mg/kg/injection, schedule: Q04DX004 (ip), vehicle: sodium bicarbonate) 93 % of control.
With `O=C(Nc1cccc(O)c1)C(Cl)=C(Cl)Cl`, the T/C (dose: 6.25 mg/kg/injection, schedule: Q04DX004 (ip), vehicle: other) is 96 % of control and the T/C (dose: 12.5 mg/kg/injection, schedule: Q04DX004 (ip), vehicle: other) was 95 % of control.
For `CN(C)c1cc2c(nn1)Nc1ccccc1S2`, the T/C (dose: 50.0 mg/kg/injection, schedule: Q04DX004 (ip), vehicle: saline with Tween-80) was 88 % of control; the T/C (dose: 100.0 mg/kg/injection, schedule: Q04DX004 (ip), vehicle: saline with Tween-80) was 88 % of control; the T/C (dose: 200.0 mg/kg/injection, schedule: Q04DX004 (ip), vehicle: saline with Tween-80) was 97 % of control; the T/C (dose: 800.0 mg/kg/injection, schedule: Q04DX004 (ip), vehicle: saline with Tween-80) was 90 % of control.
In the case of `CC(=O)OC1C(O)C(C)OC(OC2C(OC(=O)C3CCC4C(C3)OC3(CC(OC(=O)/C=C/c5ccccc5)C(C)CO3)C43CO3)OC(C)C(O)C2OC(C)=O)C1O` (stereo not drawn), the T/C (dose: 1.0 mg/kg/injection, schedule: Q01DX009 (ip), vehicle: saline + alcohol) was 100 % of control; the T/C (dose: 1.0 mg/kg/injection, schedule: Q04DX004 (ip), vehicle: saline + alcohol) is 107 % of control; the T/C (dose: 2.0 mg/kg/injection, schedule: Q01DX009 (ip), vehicle: saline + alcohol) is 105 % of control; the T/C (dose: 2.0 mg/kg/injection, schedule: Q04DX004 (ip), vehicle: saline + alcohol) was 112 % of control; the T/C (dose: 4.0 mg/kg/injection, schedule: Q01DX009 (ip), vehicle: saline + alcohol) is 113 % of control; the T/C (dose: 4.0 mg/kg/injection, schedule: Q04DX004 (ip), vehicle: saline + alcohol) was 116 % of control. For the same compound, the T/C runs as follows: (dose: 8.0 mg/kg/injection, schedule: Q01DX009 (ip), vehicle: saline + alcohol) 121 % of control; (dose: 12.96 mg/kg/injection, schedule: Q04DX004 (ip), vehicle: saline + alcohol) 123 % of control; (dose: 21.6 mg/kg/injection, schedule: Q04DX004 (ip), vehicle: saline + alcohol) 115 % of control; (dose: 36.0 mg/kg/injection, schedule: Q04DX004 (ip), vehicle: saline + alcohol) 157 % of control; (dose: 60.0 mg/kg/injection, schedule: Q04DX004 (ip), vehicle: saline + alcohol) 116 % of control; (dose: 100.0 mg/kg/injection, schedule: Q04DX004 (ip), vehicle: saline + alcohol) 115 % of control.
With `C1CCC(NC2CCCCC2)CC1`, the T/C was 103 % of control (dose: 75.0 mg/kg/injection, schedule: Q04DX004 (ip), vehicle: saline); 103 % of control (dose: 150.0 mg/kg/injection, schedule: Q04DX004 (ip), vehicle: saline); 100 % of control (dose: 300.0 mg/kg/injection, schedule: Q04DX004 (ip), vehicle: saline).
In the case of `O=NN(CCCl)C(=O)NCCCl`, the T/C was 116 % of control (dose: 1.5 mg/kg/injection, schedule: Q04DX004 (ip), vehicle: saline + alcohol); 163 % of control and 164 % of control (dose: 6.0 mg/kg/injection, schedule: Q04DX004 (ip), vehicle: saline + alcohol); 224 % of control and 292 % of control (dose: 12.0 mg/kg/injection, schedule: Q04DX004 (ip), vehicle: saline + alcohol); 248 % of control and 292 % of control (dose: 24.0 mg/kg/injection, schedule: Q04DX004 (ip), vehicle: saline + alcohol); 244 % of control (dose: 48.0 mg/kg/injection, schedule: Q04DX004 (ip), vehicle: saline + alcohol).
Take `COc1c(C=O)c2c(c(OC)c1OC)-c1ccc(OC)c(=O)cc1[C@@H](NC(C)=O)CC2`: the T/C is 118 % of control (dose: 3.75 mg/kg/injection, schedule: Q04DX004 (ip), vehicle: Klucel (hydroxypropylcellulose) (HPC)) and 118 % of control (dose: 7.5 mg/kg/injection, schedule: Q04DX004 (ip), vehicle: Klucel (hydroxypropylcellulose) (HPC)).
Turning to `O=[N+]([O-])c1ccc(/C=C/C=C/C=C/C=C/c2ccc(S(=O)(=O)F)cc2Cl)c(Cl)c1`, the T/C is 95 % of control (dose: 18.75 mg/kg/injection, schedule: Q04DX004 (ip), vehicle: saline with Tween-80); 96 % of control (dose: 37.5 mg/kg/injection, schedule: Q04DX004 (ip), vehicle: saline with Tween-80); 98 % of control (dose: 75.0 mg/kg/injection, schedule: Q04DX004 (ip), vehicle: saline with Tween-80).
Turning to `CCN(CC)CCOC(=O)c1c(C)oc2cc3c(C(=O)OCCN(CC)CC)c(C)oc3cc12`, the T/C (dose: 25.0 mg/kg/injection, schedule: Q04DX004 (ip), vehicle: Klucel (hydroxypropylcellulose) (HPC)) was 105 % of control; the T/C (dose: 50.0 mg/kg/injection, schedule: Q04DX004 (ip), vehicle: Klucel (hydroxypropylcellulose) (HPC)) is 99 % of control; the T/C (dose: 100.0 mg/kg/injection, schedule: Q04DX004 (ip), vehicle: Klucel (hydroxypropylcellulose) (HPC)) was 109 % of control; the T/C (dose: 200.0 mg/kg/injection, schedule: Q04DX004 (ip), vehicle: Klucel (hydroxypropylcellulose) (HPC)) was 104 % of control; the T/C (dose: 400.0 mg/kg/injection, schedule: Q04DX004 (ip), vehicle: Klucel (hydroxypropylcellulose) (HPC)) was 106 % of control.
On to `Nc1nc(N)c2c(ccc3c2ccn3Cc2cccc([N+](=O)[O-])c2)n1`, for which the T/C reads like this: (dose: 2.38 mg/kg/injection, schedule: Q04DX004 (ip), vehicle: saline with Tween-80) 98 % of control and 109 % of control; (dose: 4.69 mg/kg/injection, schedule: Q04DX004 (ip), vehicle: saline with Tween-80) 117 % of control; (dose: 4.75 mg/kg/injection, schedule: Q04DX004 (ip), vehicle: saline with Tween-80) 115 % of control; (dose: 9.38 mg/kg/injection, schedule: Q04DX004 (ip), vehicle: saline with Tween-80) 121 % of control; (dose: 9.5 mg/kg/injection, schedule: Q04DX004 (ip), vehicle: saline with Tween-80) 118 % of control; (dose: 38.0 mg/kg/injection, schedule: Q04DX004 (ip), vehicle: saline with Tween-80) 153 % of control and 155 % of control.
On to `Clc1ccc(CC(Cn2ccnc2)c2ccccc2Cl)cc1` (stereo not drawn), for which the T/C was 111 % of control (dose: 15.63 mg/kg/injection, schedule: Q04DX004 (ip), vehicle: saline with Tween-80); 102 % of control (dose: 31.25 mg/kg/injection, schedule: Q04DX004 (ip), vehicle: saline with Tween-80); 96 % of control (dose: 62.5 mg/kg/injection, schedule: Q04DX004 (ip), vehicle: saline with Tween-80); 87 % of control (dose: 125.0 mg/kg/injection, schedule: Q04DX004 (ip), vehicle: saline with Tween-80).
In the case of `C[C@@]12C(=O)OC(=O)[C@]1(C)[C@H]1CC[C@@H]2O1`, the T/C is 100 % of control (dose: 125.0 micrograms/kg/injection, schedule: Q01DX009 (ip), vehicle: acetone); 115 % of control (dose: 250.0 micrograms/kg/injection, schedule: Q01DX009 (ip), vehicle: acetone); 116 % of control (dose: 500.0 micrograms/kg/injection, schedule: Q01DX009 (ip), vehicle: acetone); 100 % of control (dose: 1000.0 micrograms/kg/injection, schedule: Q01DX009 (ip), vehicle: acetone).
For `O=C1CN2Cc3c(sc4c3CCCC4)N=C2N1`, the T/C by setting is: (dose: 37.5 mg/kg/injection, schedule: Q04DX004 (ip), vehicle: Klucel (hydroxypropylcellulose) (HPC)) 103 % of control; (dose: 75.0 mg/kg/injection, schedule: Q04DX004 (ip), vehicle: Klucel (hydroxypropylcellulose) (HPC)) 104 % of control; (dose: 150.0 mg/kg/injection, schedule: Q04DX004 (ip), vehicle: Klucel (hydroxypropylcellulose) (HPC)) 100 % of control; (dose: 300.0 mg/kg/injection, schedule: Q04DX004 (ip), vehicle: Klucel (hydroxypropylcellulose) (HPC)) 103 % of control; (dose: 600.0 mg/kg/injection, schedule: Q04DX004 (ip), vehicle: Klucel (hydroxypropylcellulose) (HPC)) 100 % of control.
Turning to `Cc1ncc(CO)c(CO)c1OCC(O)CN1CCN(C(=O)c2ccccc2)CC1` (stereo not drawn), the T/C is, setting by setting: (dose: 25.0 mg/kg/injection, schedule: Q04DX004 (ip), vehicle: saline) 103 % of control; (dose: 50.0 mg/kg/injection, schedule: Q04DX004 (ip), vehicle: saline) 103 % of control; (dose: 100.0 mg/kg/injection, schedule: Q04DX004 (ip), vehicle: saline) 99 % of control.
`CC(CN1CC(=O)NC(=O)C1)N1CC(=O)NC(=O)C1` (stereo not drawn): the T/C runs as follows: (dose: 25.0 mg/kg/injection, schedule: Q04DX005 (ip), vehicle: saline with Tween-80) 118 % of control; (dose: 50.0 mg/kg/injection, schedule: Q04DX005 (ip), vehicle: saline with Tween-80) 103 % of control.
